{"source": "patent US20250368647A1", "about": "“NITROGEN CONTAINING CONDENSED 2,3-DIHYDROQUINAZOLINONE COMPOUNDS AS NAV1.8 INHIBITORS” (GLAXOSMITHKLINE INTELLECTUAL PROPERTY DEVELOPMENT LIMITED, priority 2022, published 2025)", "data": [{"target": "human Nav1.8 (Homo sapiens (Human), UniProt Q9Y5Y9)", "sequence (Q9Y5Y9 whole entry)": "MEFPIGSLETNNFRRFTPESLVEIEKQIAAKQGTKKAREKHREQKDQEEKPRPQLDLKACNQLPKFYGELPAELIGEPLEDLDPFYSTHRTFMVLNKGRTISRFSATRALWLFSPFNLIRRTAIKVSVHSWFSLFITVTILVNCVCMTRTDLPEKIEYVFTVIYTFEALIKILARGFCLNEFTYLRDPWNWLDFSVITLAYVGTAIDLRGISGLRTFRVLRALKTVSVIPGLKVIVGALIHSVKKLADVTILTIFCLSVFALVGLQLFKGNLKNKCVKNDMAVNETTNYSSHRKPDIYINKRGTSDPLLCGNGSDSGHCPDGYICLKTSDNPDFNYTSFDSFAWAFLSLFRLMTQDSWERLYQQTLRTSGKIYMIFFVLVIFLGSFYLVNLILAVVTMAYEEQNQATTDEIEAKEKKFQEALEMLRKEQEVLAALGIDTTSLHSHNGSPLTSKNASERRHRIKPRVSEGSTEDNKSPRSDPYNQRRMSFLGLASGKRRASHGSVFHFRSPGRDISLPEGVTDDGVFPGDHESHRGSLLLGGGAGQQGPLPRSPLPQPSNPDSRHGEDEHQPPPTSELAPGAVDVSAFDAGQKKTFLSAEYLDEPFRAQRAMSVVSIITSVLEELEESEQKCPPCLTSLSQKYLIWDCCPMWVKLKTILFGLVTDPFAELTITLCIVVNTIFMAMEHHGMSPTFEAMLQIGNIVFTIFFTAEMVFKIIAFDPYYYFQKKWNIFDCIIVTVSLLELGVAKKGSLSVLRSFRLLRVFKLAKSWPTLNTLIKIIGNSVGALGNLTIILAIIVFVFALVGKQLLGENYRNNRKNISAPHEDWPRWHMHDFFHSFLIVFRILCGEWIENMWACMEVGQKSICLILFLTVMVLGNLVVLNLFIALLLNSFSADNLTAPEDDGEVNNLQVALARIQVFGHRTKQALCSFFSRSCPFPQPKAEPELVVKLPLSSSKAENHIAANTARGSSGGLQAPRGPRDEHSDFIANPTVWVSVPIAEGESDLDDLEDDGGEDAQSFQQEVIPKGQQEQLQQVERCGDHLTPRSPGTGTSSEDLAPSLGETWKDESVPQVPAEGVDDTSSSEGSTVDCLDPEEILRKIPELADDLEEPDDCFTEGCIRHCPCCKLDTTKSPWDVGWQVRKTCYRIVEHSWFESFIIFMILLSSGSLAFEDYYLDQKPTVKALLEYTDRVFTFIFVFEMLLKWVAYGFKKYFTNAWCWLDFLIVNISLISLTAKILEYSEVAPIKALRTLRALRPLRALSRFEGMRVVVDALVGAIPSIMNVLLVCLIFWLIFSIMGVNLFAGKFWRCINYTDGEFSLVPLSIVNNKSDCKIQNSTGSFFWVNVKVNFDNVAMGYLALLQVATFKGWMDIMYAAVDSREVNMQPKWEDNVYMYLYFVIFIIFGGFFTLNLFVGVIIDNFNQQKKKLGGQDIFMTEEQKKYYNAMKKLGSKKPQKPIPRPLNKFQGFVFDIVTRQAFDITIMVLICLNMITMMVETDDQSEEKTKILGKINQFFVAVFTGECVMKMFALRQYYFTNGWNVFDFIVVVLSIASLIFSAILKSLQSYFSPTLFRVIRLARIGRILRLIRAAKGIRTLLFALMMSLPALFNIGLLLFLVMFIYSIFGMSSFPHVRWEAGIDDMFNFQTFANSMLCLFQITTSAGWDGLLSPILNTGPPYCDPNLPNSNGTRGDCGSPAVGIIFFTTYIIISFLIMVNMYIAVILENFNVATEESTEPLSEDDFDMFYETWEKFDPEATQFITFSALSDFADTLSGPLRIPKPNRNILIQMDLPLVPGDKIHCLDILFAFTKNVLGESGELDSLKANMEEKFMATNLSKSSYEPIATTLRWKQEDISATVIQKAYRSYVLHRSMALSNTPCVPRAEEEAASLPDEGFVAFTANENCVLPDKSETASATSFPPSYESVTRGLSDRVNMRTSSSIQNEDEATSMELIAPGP", "sequence (Q07699 19-218 partner)": "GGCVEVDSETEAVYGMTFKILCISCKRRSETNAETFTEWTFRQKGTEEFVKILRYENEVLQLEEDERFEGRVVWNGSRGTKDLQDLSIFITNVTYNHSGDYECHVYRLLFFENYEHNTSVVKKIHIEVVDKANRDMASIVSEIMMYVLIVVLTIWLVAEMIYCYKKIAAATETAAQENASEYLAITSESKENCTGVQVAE", "assay": "QPatch 48 HTX voltage-clamp electrophysiology, half inactivation state (V1/2) protocol, HEK293-Nav1.8 cells", "assay_type": "cell-based", "settings": "HEK293 cells expressing human Nav1.8, human Navβ1 and human TREK1, P2 current", "procedure,_shortened": "(§1)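 HEK293 cells co-expressing Navβ1 and TREK1 were voltage-clamped from −100 mV: a 20 ms step to 0 mV, 8 s inactivation at −46 mV, 20 ms at −100 mV, then a 20 ms P2 test step to 0 mV, repeated every 15 s. P2 current was normalized to vehicle and full block, corrected for run-down, and Hill-fitted (4–6 concentrations) for IC50.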", "values": [{"smiles": "Cl.N#Cc1cc2c(cc1Cl)C(=O)N1CN2c2ccc(F)cc2CCCNc2[nH]c(=O)ccc21", "note": "[Example 100, 2-Chloro-8-fluoro-15,19-dioxo-10,11,12,13,14,15-hexahydro-19H-5,18-methano-dibenzo[f,i]pyrido[2,3-b][1,4,8]triazacyclotridecine-3-carbonitrile, hydrochloride]", "Nav1.8, pIC50": 7.5}, {"smiles": "Cl.O=C1c2cc(Cl)c(F)cc2N2CN1c1ccc(=O)[nH]c1NCCCc1c2ccc(F)c1F", "note": "[Example 101, 2-Chloro-3,8,9-trifluoro-10,11,12,13-tetrahydro-19H-5,18-methanodibenzo[f,i]pyrido[2,3-b]-[1,4,8]triazacyclotridecine-15,19(14H)-dione, hydrochloride]", "Nav1.8, pIC50": 7.8}, {"smiles": "O=C1c2cc(F)c(C(F)(F)F)cc2N2CN1c1ccc(=O)[nH]c1CNCCc1cc(F)ccc12", "note": "[Example 102, 2,8-Difluoro-3-(trifluoromethyl)-10,11,12,13-tetrahydro-19H-5,18-methanodibenzo[b,l]pyrido[3,2-f][1,5,9]triazacyclotridecine-15,19(14H)-dione]", "Nav1.8, pIC50": 7.1}, {"smiles": "O=C1c2cc(C(F)(F)F)ccc2N2CN1c1ccc(=O)[nH]c1CNCCc1cc(F)ccc12", "note": "[Example 103, 8-Fluoro-2-(trifluoromethyl)-10,11,12,13-tetrahydro-19H-5,18-methanodibenzo[b,l]pyrido[3,2-f][1,5,9]triazacyclotridecine-15,19(14H)-dione]", "Nav1.8, pIC50": 6.4}, {"smiles": "O=C1c2cc(C(F)(F)F)ccc2N2CN1c1ccc(=O)[nH]c1CNCCCc1cc(F)ccc12", "note": "[Example 104, 3^4-Fluoro-2^6-(trifluoromethyl)-1^1,1^2,2^1,2^2,2^3,2^4-hexahydro-7-aza-2(3,1)quinazolina-1(5,6)-pyridina-3(1,2)-benzenacyclooctaphane-1^2,2^4-dione]", "Nav1.8, pIC50": 6.9}, {"smiles": "Cl.O=C1c2cc(F)c(C(F)(F)F)cc2N2CN1c1ccc(=O)[nH]c1CNCCCc1cc(F)ccc12", "note": "[Example 105, 2^6,3^4-Difluoro-2^7-(trifluoromethyl)-1^1,1^2,2^1,2^2,2^3,2^4-hexahydro-7-aza-2(3,1)-quinazolina-1(5,6)-pyridina-3(1,2)-benzenacyclooctaphane-1^2,2^4-dione hydrochloride]", "Nav1.8, pIC50": 7.8}, {"smiles": "Cl.O=C1c2cc(F)c(C(F)(F)F)cc2N2CN1c1ccc(=O)[nH]c1CNCCCc1c2ccc(F)c1F", "note": "[Example 106, 2^6,3^3,3^4-Trifluoro-2^7-(trifluoromethyl)-1^1,1^2,2^1,2^2,2^3,2^4-hexahydro-7-aza-2(3,1)-quinazolina-1(5,6)-pyridina-3(1,2)-benzenacyclooctaphane-1^2,2^4-dione hydrochloride]", "Nav1.8, pIC50": 8.1}, {"smiles": "Cl.O=C1c2cc(F)c(C(F)(F)F)cc2N2CN1c1ccc(=O)[nH]c1CCCNCc1cc(F)ccc12", "note": "[Example 107, 2^6,3^4-Difluoro-2^7-(trifluoromethyl)-1^1,1^2,2^1,2^2,2^3,2^4-hexahydro-5-aza-2(3,1)-quinazolina-1(5,6)-pyridina-3(1,2)-benzenacyclooctaphane-1^2,2^4-dione hydrochloride]", "Nav1.8, pIC50": 7.3}, {"smiles": "Cl.O=C1c2cc(F)c(C(F)(F)F)cc2N2CN1c1ccc(=O)[nH]c1CCCNCc1c2ccc(F)c1F", "note": "[Example 108, 2^6,3^3,3^4-trifluoro-2^7-(trifluoromethyl)-1^1,1^2,2^1,2^2,2^3,2^4-hexahydro-5-aza-2(3,1)-quinazolina-1(5,6)-pyridina-3(1,2)-benzenacyclooctaphane-1^2,2^4-dione hydrochloride]", "Nav1.8, pIC50": 7.6}, {"smiles": "Cl.O=C1c2cc(F)c(F)cc2N2CN1c1ccc(=O)[nH]c1CCCNCc1c2ccc(F)c1Cl", "note": "[Example 109, 3^3-Chloro-2^6,2^7,3^4-trifluoro-1^1,1^2,2^1,2^2,2^3,2^4-hexahydro-5-aza-2(3,1)-quinazolina-1(5,6)-pyridina-3(1,2)-benzenacyclooctaphane-1^2,2^4-dione hydrochloride]", "Nav1.8, pIC50": 6.8}, {"smiles": "Cl.N#Cc1cc2c(cc1F)C(=O)N1CN2c2ccc(F)c(Cl)c2CNCCCc2[nH]c(=O)ccc21", "note": "[Example 110, 3^3-Chloro-2^6,3^4-difluoro-1^2,2^4-dioxo-1^1,1^2,2^1,2^2,2^3 2^4-hexahydro-5-aza-2(3,1)-quinazolina-1(5,6)-pyridina-3(1,2)-benzenacyclooctaphane-2^7-carbonitrile hydrochloride]", "Nav1.8, pIC50": 6.8}, {"smiles": "Cl.O=C1c2cc(F)c(C(F)(F)F)cc2N2CN1c1ccc(=O)[nH]c1CCNCCc1cc(F)ccc12", "note": "[Example 111, 2^6,3^4-Difluoro-2^7-(trifluoromethyl)-1^1,1^2,2^1,2^2,2^3,2^4-hexahydro-6-aza-2(3,1)-quinazolina-1(5,6)-pyridina-3(1,2)-benzenacyclooctaphane-1^2,2^4-dione hydrochloride]", "Nav1.8, pIC50": 7.1}, {"smiles": "CN1CCc2cc(F)ccc2N2CN(C(=O)c3cc(F)c(C(F)(F)F)cc32)c2ccc(=O)[nH]c2CC1", "note": "[Example 112, 2^6,3^4-Difluoro-6-methyl-2^7-(trifluoromethyl)-1^1,1^2,2^1,2^2,2^3,2^4-hexahydro-6-aza-2(3,1)-quinazolina-1(5,6)-pyridina-3(1,2)-benzenacyclooctaphane-1^2,2^4-dione]", "Nav1.8, pIC50": 6.2}, {"smiles": "CN1CCCc2[nH]c(=O)ccc2N2CN(c3cc(F)c(F)cc3C2=O)c2ccc(F)c(Cl)c2C1.Cl", "note": "[Example 113, 3^3-Chloro-2^6,2^7,3^4-trifluoro-5-methyl-1^1,1^2,2^1,2^2,2^3,2^4-hexahydro-5-aza-2(3,1)-quinazolina-1(5,6)-pyridina-3(1,2)-benzenacyclooctaphane-1^2,2^4-dione hydrochloride]", "Nav1.8, pIC50": 6.9}, {"smiles": "C[C@H]1NCCc2[nH]c(=O)ccc2N2CN(c3cc(Cl)c(F)cc3C2=O)c2ccc(F)cc21", "note": "[Example 121, (10R)-3-chloro-2,8-difluoro-10-methyl-10,11,12,13-tetrahydro-19H-5,18-methanodibenzo[c,f]pyrido[3,2-j][1,5,9]triazacyclotridecine-15,19(14H)-dione]", "Nav1.8, pIC50": 7.4}, {"smiles": "C[C@@H]1NCCc2[nH]c(=O)ccc2N2CN(c3cc(Cl)c(F)cc3C2=O)c2ccc(F)cc21", "note": "[Example 122, (10S)-3-chloro-2,8-difluoro-10-methyl-10,11,12,13-tetrahydro-19H-5,18-methanodibenzo[c,f]pyrido[3,2-j][1,5,9]triazacyclotridecine-15,19(14H)-dione]", "Nav1.8, pIC50": 5.9}, {"smiles": "CCC1NCCc2[nH]c(=O)ccc2N2CN(c3cc(C(F)(F)F)c(F)cc3C2=O)c2ccc(F)cc21.Cl", "note": "(stereo not shown) [Example 126, 10-Ethyl-2,8-difluoro-3-(trifluoromethyl)-10,11,12,13-tetrahydro-19H-5,18-methanodibenzo[c,f]pyrido[3,2-j][1,5,9]triazacyclotridecine-15,19(14H)-dione hydrochloride]", "Nav1.8, pIC50": 7}, {"smiles": "O=C1c2cc(F)c(C(F)(F)F)cc2N2CN1c1ccc(=O)[nH]c1NCCOCc1cc(F)ccc12", "note": "[Example 129, 2^6,3^4-Difluoro-2^7-(trifluoromethyl)-1^1,1^2,2^1,2^2,2^3,2^4-hexahydro-5-oxa-8-aza-2(3,1)-quinazolina-1(5,6)-pyridina-3(1,2)-benzenacyclooctaphane-1^2,2^4-dione]", "Nav1.8, pIC50": 6.4}, {"smiles": "CC1CCc2c(ccc(F)c2F)N2CN(C(=O)c3cc(F)c(C(F)(F)F)cc32)c2ccc(=O)[nH]c2N1", "note": "(stereo not shown) [Example 130, 2,8,9-Trifluoro-12-methyl-3-(trifluoromethyl)-10,11,12,13-tetrahydro-19H-5,18-methanodibenzo[f,i]pyrido[2,3-b][1,4,8]triazacyclotridecin-15,19(14H)-dione]", "Nav1.8, pIC50": 6.8}]}, {"target": "human Nav1.8 (Homo sapiens (Human), UniProt Q9Y5Y9)", "assay": "QPatch 48 HTX voltage-clamp electrophysiology, half inactivation state (V1/2) protocol, HEK293-Nav1.8 cells", "assay_type": "cell-based", "settings": "HEK293 cells expressing human Nav1.8, human Navβ1 and human TREK1, P2 current, read-out: Nav1.8, pIC50 (converted)", "procedure,_shortened": "as §1", "units": {"IC50": "nM"}, "values": [{"smiles": "C[C@H]1NCCc2[nH]c(=O)ccc2N2CN(c3ccc(C(F)(F)F)cc3C2=O)c2ccc(F)cc21", "note": "[Example 115, (10R)-8-fluoro-10-methyl-2-(trifluoromethyl)-10,11,12,13-tetrahydro-19H-5,18-methanodibenzo[c,f]pyrido[3,2-j][1,5,9]triazacyclotridecine-15,19(14H)-dione]", "IC50": 100}, {"smiles": "C[C@@H]1NCCc2[nH]c(=O)ccc2N2CN(c3ccc(C(F)(F)F)cc3C2=O)c2ccc(F)cc21", "note": "[Example 116, (10S)-8-fluoro-10-methyl-2-(trifluoromethyl)-10,11,12,13-tetrahydro-19H-5,18-methanodibenzo[c,f]pyrido[3,2-j][1,5,9]triazacyclotridecine-15,19(14H)-dione]", "IC50": 126}, {"smiles": "C[C@H]1NCCc2[nH]c(=O)ccc2N2CN(c3cc(C(F)(F)F)c(F)cc3C2=O)c2ccc(F)cc21", "note": "[Example 118, (10R)-2,8-difluoro-10-methyl-3-(trifluoromethyl)-10,11,12,13-tetrahydro-19H-5,18-methanodibenzo[c,f]pyrido[3,2-j][1,5,9]triazacyclotridecine-11(10H)-dione]", "IC50": 31.6}, {"smiles": "C[C@@H]1NCCc2[nH]c(=O)ccc2N2CN(c3cc(C(F)(F)F)c(F)cc3C2=O)c2ccc(F)cc21", "note": "[Example 119, (10S)-2,8-Difluoro-10-methyl-3-(trifluoromethyl)-10,11,12,13-tetrahydro-19H-5,18-methanodibenzo[c,f]pyrido[3,2-j][1,5,9]triazacyclotridecine-11(10H)-dione]", "IC50": 631}, {"smiles": "CC[C@H]1NCCc2[nH]c(=O)ccc2N2CN(c3cc(C(F)(F)F)c(F)cc3C2=O)c2ccc(F)cc21", "note": "[Example 127, (10R)-10-ethyl-2,8-difluoro-3-(trifluoromethyl)-10,11,12,13-tetrahydro-19H-5,18-methanodibenzo[c,f]pyrido[3,2-j][1,5,9]triazacyclotridecine-15,19(14H)-dione]", "IC50": 63.1}, {"smiles": "CC[C@@H]1NCCc2[nH]c(=O)ccc2N2CN(c3cc(C(F)(F)F)c(F)cc3C2=O)c2ccc(F)cc21", "note": "[Example 128, (10S)-10-ethyl-2,8-difluoro-3-(trifluoromethyl)-10,11,12,13-tetrahydro-19H-5,18-methanodibenzo[c,f]pyrido[3,2-j][1,5,9]triazacyclotridecine-15,19(14H)-dione]", "IC50": 631}]}]}
